Laboratory results from ChEMBL document CHEMBL3885881, “DrugMatrix”.

Species: Rattus norvegicus
Type: toxicity, organism-based, Sprague-Dawley
Conditions: in vivo, ip, 24 h, route intraperitoneal, time 1 day, vehicle .1 % RSA/SALINE
[1] = 0 mg/kg, vehicle control, tissue Blood, dose level Control
[2] = 0 mg/kg, vehicle control, tissue Plasma, dose level Control
[3] = 0.01 mg/kg, tissue Blood, dose level High
[4] = 0.01 mg/kg, tissue Plasma, dose level High

Description: DrugMatrix - Regimen: Single

INTERLEUKIN 1 BETA, RAT
ABSOLUTE EOSINOPHIL [1]: 109.33 CELLS/uL
ABSOLUTE LYMPHOCYTE [1]: 13180.67 CELLS/uL
ABSOLUTE MONOCYTE [1]: 354 CELLS/uL
ABSOLUTE SEGMENTED NEUTROPHIL [1]: 1756 CELLS/uL
BASOPHIL [1]: 0%
EOSINOPHIL [1]: 0.67%
ERYTHROCYTE COUNT [1]: 5.38 x10E6/uL
HEMOGLOBIN [1]: 12.57 G/DL
LEUKOCYTE COUNT [1]: 15.4 x10E3/uL
LYMPHOCYTE [1]: 85%
MEAN CORPUSCULAR HEMOGLOBIN [1]: 23.37 pg
MEAN CORPUSCULAR HEMOGLOBIN CONCENTRATION [1]: 38.3 G/DL
NEUTROPHIL [1]: 12%
NUCLEATED RED BLOOD CELLS [1]: 0 /100WBC
PLATELET COUNT [1]: 832.33 x10E3/uL
ALANINE AMINOTRANSFERASE [2]: 37.33 u/L
ALBUMIN [2]: 4 G/DL
ALKALINE PHOSPHATASE [2]: 344.67 u/L
ASPARTATE AMINOTRANSFERASE [2]: 69.33 u/L
BLOOD UREA NITROGEN [2]: 13.67 mg/dL
CARBON DIOXIDE [2]: 28.33 mmol/L
CHLORIDE [2]: 99.67 MEQ/L
CHOLESTEROL [2]: 73.67 mg/dL
CREATINE PHOSPHOKINASE [2]: 270 u/L
CREATININE [2]: 0.19 mg/dL
GLUCOSE [2]: 176.33 mg/dL
LACTATE DEHYDROGENASE [2]: 160 u/L
PHOSPHORUS [2]: 13.47 mg/dL
POTASSIUM [2]: 6.77 MEQ/L
TOTAL BILIRUBIN [2]: 0.13 mg/dL
TOTAL PROTEIN [2]: 6.07 G/DL
URIC ACID [2]: 1.87 mg/dL
ABSOLUTE EOSINOPHIL [3]: 0 CELLS/uL
ABSOLUTE LYMPHOCYTE [3]: 13348 CELLS/uL
ABSOLUTE MONOCYTE [3]: 227.67 CELLS/uL
ABSOLUTE SEGMENTED NEUTROPHIL [3]: 3524.33 CELLS/uL
BASOPHIL [3]: 0%
EOSINOPHIL [3]: 0%
ERYTHROCYTE COUNT [3]: 5.11 x10E6/uL
HEMATOCRIT [3]: 31.33%
HEMOGLOBIN [3]: 12.13 G/DL
LEUKOCYTE COUNT [3]: 17.1 x10E3/uL
LYMPHOCYTE [3]: 78%
MEAN CORPUSCULAR HEMOGLOBIN CONCENTRATION [3]: 38.73 G/DL
MEAN CORPUSCULAR VOLUME [3]: 61.37 fL
NEUTROPHIL [3]: 20.67%
NUCLEATED RED BLOOD CELLS [3]: 0.33 /100WBC
PLATELET COUNT [3]: 933.33 x10E3/uL
ALANINE AMINOTRANSFERASE [4]: 30.33 u/L
ALKALINE PHOSPHATASE [4]: 386.33 u/L
ASPARTATE AMINOTRANSFERASE [4]: 62.67 u/L
CARBON DIOXIDE [4]: 25.33 mmol/L
CHOLESTEROL [4]: 66.67 mg/dL
CREATINE PHOSPHOKINASE [4]: 237 u/L
CREATININE [4]: 0.18 mg/dL
GLUCOSE [4]: 176.33 mg/dL
LACTATE DEHYDROGENASE [4]: 101 u/L
PHOSPHORUS [4]: 12.13 mg/dL
POTASSIUM [4]: 6.6 MEQ/L
TOTAL BILIRUBIN [4]: 0.13 mg/dL
TOTAL PROTEIN [4]: 6.07 G/DL
